Experimental data published in patent US20050033056A1, “Hydroxylated indole derivatives and uses thereof” (priority 2001, published 2005).
“Also recorded” adds a separate entry of the source. Where two headings read alike, the source gives them in different places.

Assays:
[1] = tested on: pooled human liver microsomal preparations (HLM); assay: Compound 1 metabolism / metabolite formation in reconstituted system with pooled HLM; assay type: in vitro ADME; details: estimated by UV absorbance at 270 nm, metabolite formed or Compound 1 left after 1 hour with NADPH
Procedure: The metabolism of Compound 1 was determined by the disappearance of Compound 1 or the appearance of Compound 1 metabolites in reaction mixtures as compared to respective controls. Compound 1 was incubated in the reconstituted in vitro reaction systems containing pooled human liver S9 fractions, microsomal preparations, or recombinant hepatic CYP forms, including CYP1A2, CYP2C9, CYP2C19, CYP2D6, CYP2E1, and CYP3A4. The reaction mixture (total volume of 250 μL) contained 0.5 mg of liver microsomal protein, 50 or 25 pmol of recombinant CYP, and Compound 1 (50-80 μM) in 50 mM Tris buffer containing 15 mM MgCl2 (pH 7.4). After incubating at 37° C. with gentle shaking for 1 minute, the reaction was initiated by adding 25 μL of NADPH solution (20 mg/mL), and was carried out for 1 hour. The reaction was terminated by quickly cooling the test tube on ice, followed by the addition of an equal volume of 100% methanol. The samples were centrifuged in a desktop centrifuge at 14,000 rpm for 5 minutes, and the supernatants were filtered through syringe filters (13 mm, 0.45 μm). The filtrates were subjected to analysis using LC/MS (ion trap) or LC/MS/MS.
1. […] The detector was monitored at 270 nm, which is the UVmax of Compound 1 predetermined by scanning between 225-400 nm using a photodiode array detector (PDA). […]

[2] = target: T1, cDNA-expressed recombinant CYP2C19 (Homo sapiens, UniProt P33261); assay: Apparent Ki with recombinant CYP2C19 (S-mephenyloin 4'-hydroxylation; Dixon plots, SNLR); assay type: in vitro ADME; details: for Ki: recombinant CYP2C19
T1 construct: purchased Gentest Corp. (Woburn, Mass.); host or cells: insect cells (microsomal preparation)
Procedure: If inhibition was detected, the inhibitory potency was determined using recombinant CYPs. Compound 1 appeared to inhibit the activities of CYP2D6 and CYP2C19. Therefore, three concentrations of S-mephenyloin (30, 80, and 200 μM) and bufuralol (5, 10, and 40 μM), and a range of concentrations (0-200 μM) of Compound 1 were used for the construction of Dixon plots and simultaneously nonlinear regression (SNLR) analyses were performed. The incubation conditions and sample preparations were the same as previously described.
4. CYP2C19-mediated S-mephenyloin 4′-hydroxylation (Goldstein et al., Biochemistry 33:1743-1752, 1994): The LC/MS/MS system, including the separation column, described for the bufuralol hydroxylation was used. The isocratic mobile phase, 100 mM formic acid-acetonitrile/75:25, was run at 0.25 ml/minutes. The operation of the LC/MS/MS was controlled by MacChrom (Version 1.6). The MS/MS was operated at positive ESI with a 5.5 kV ionization potential and 100° C. ion source temperature. MRM was applied for the quantification. The MRM transition ions were m/z 235→150 for 4′-hydroxymephenytoin, and m/z […] for the IS R-propranolol.
Data were acquired and analyzed by ChemStation (Version 6.03, Hewlett Packard, Waldbronn, Germany) for 6-, 7-, and 10-hydroxywarfarin and 6-hydroxychlorzoxazone, and MacQuan (Version 1.6, PE Biosystem, Foster City, Calif.) for 1′-hydroxybufuralol and 4′-hydroxymephenytoin. Quantification was based on peak area ratios of metabolites over the respective IS against the respective concentration of the metabolites. The standard curves were generated by linear regression with (6-, 7-, and 10-hydroxywarfarin, 1′-hydroxybufuralol, and 4′-hydroxymephenytoin) or without (6-hydroxychlorzoxazone) a weighting factor (1/x^2). The metabolic rates were determined using Excel (Microsoft Office 97, Microsoft Corporation, Redmond, Wash.) or SigmaPlot (Version 6.00, SPSS Inc. Chicago, Ill.). […]

T1 sequence (P33261 whole entry): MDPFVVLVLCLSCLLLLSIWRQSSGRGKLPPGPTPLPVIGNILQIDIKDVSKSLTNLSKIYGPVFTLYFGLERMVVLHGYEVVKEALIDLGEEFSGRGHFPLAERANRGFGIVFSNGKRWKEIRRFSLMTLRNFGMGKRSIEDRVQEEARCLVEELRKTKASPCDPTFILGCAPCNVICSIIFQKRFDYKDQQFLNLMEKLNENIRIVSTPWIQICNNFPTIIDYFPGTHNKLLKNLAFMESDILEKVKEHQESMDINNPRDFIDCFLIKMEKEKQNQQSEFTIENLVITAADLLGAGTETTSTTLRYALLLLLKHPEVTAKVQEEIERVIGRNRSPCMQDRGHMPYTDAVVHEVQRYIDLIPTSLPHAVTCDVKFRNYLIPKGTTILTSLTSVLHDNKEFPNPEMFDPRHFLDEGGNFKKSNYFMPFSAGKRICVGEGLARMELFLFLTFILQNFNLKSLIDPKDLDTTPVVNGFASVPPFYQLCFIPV

## CNC(=O)Cc1ccc2ccn(C3CCN(CCc4ccccc4F)CC3)c2c1 [Compound 1, N-methyl-[1-[1-(2-fluorophenethyl)piperidine-4-yl]-1H-indol-6-yl] acetamide]
[1]
  Rel. Amount (%): 36%
[2]; Dixon plots and SNLR analyses
  type of inhibition of CYP2C19: competitive inhibitor; also recorded: primarily, if not fully, competitive
[2]; Dixon plots, S-mephenyloin 30, 80, 200 μM, read-out: apparent Ki, CYP2C19, estimated by Dixon plots
  Ki: 25 to 45 µM
[2]; SNLR, competitive inhibition model, read-out: apparent Ki, CYP2C19 inhibition, determined by SNLR
  Ki: 48 µM
